Laboratory results reported in PubChem BioAssay AID977618 (Broad Institute, 2014).
Where “and” joins values, the source holds several entries; their conditions need not be identical. Identical values can stand only once. Calls of active or inactive are those of the source.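 The calls were made as follows: active = compounds lowering the cell ATP signal with fitted AC50 at most twice the top tested dose; inconclusive = flat fit between -70 and -30, or a poor fit; inactive = the rest.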

Key:
[1] = HEK293T cell cytotoxicity, dose response, cytotoxicity control, CellTiter-Glo luminescence, dry powder, set 16 (AID 977618); conditions: HEK293T viability, CellTiter-Glo ATP luminescence, 72 h; at 30 µM (top of the series)
[2] = tested on: HEK293T viability, CellTiter-Glo ATP luminescence, 72 h; test: as above

Structure (SMILES) | activity change, negative = cytotoxicity [1] | AC50 [2]
CN(C)S(=O)(=O)c1ccc(N2CCCC2)c(C(=O)Nc2cccnc2)c1 | 3.26% (inactive) | –
Cc1cnc(NC(=O)c2cc(S(=O)(=O)N3CCNCC3)ccc2N2CCCC2)s1 | -12.1% (inactive) | –
CN(C)S(=O)(=O)c1ccc(N2CCCC2)c(C(=O)Nc2nccs2)c1 | -6.06% (inactive) | –
Cc1csc(NC(=O)c2cc(S(=O)(=O)N(C)C)ccc2N2CCCC2)n1 | -4.9% (inactive) | –
Cc1cnc(NC(=O)c2cc(S(=O)(=O)N3CCOCC3)ccc2N2CCCC2)s1 | 9.35% (inactive) | –
Cc1nc(NC(=O)c2cc(S(=O)(=O)N(C)C)ccc2N2CCCC2)n[nH]1 | -1.85% (inactive) | –
Cc1cnc(NC(=O)c2cc(S(=O)(=O)N(C)C)ccc2N2CCCCC2)s1 | -9.94% (inactive) | –
CN(C)S(=O)(=O)c1ccc(N2CCCC2)c(C(=O)Nc2nc3ccccc3s2)c1 | 8.82% (inactive) | –
CN(C)S(=O)(=O)c1ccc(N2CCCC2)c(C(=O)Nc2ccncc2)c1 | -8.58% (inactive) | –
CN(C)S(=O)(=O)c1ccc(N2CCCC2)c(C(=O)Nc2cccc(F)c2)c1 | -5.2% (inactive) | –
COc1ccc2nc(NC(=O)c3cc(S(=O)(=O)N(C)C)ccc3N3CCCC3)sc2c1 | -3.18% (inactive) | –
Cc1cnc(NC(=O)c2cc(S(=O)(=O)N(C)c3ccccc3)ccc2N2CCCC2)s1 | 1.78% (inactive) | –
COc1cccc2sc(NC(=O)c3cc(S(=O)(=O)N(C)C)ccc3N3CCCC3)nc12 | -4.26% (inactive) | –
CN(C)S(=O)(=O)c1ccc(N2CCCC2)c(C(=O)Nc2ccccc2Cl)c1 | -6.21% (inactive) | –
CN(C)S(=O)(=O)c1ccc(N2CCCC2)c(C(=O)Nc2ccc(Br)cc2)c1 | -1.97% (inactive) | –
CN(C)C(=O)c1cc(S(=O)(=O)N(C)C)ccc1N1CCCC1 | 0.495% (inactive) | –
Cc1cnc(NC(=O)c2cc(S(=O)(=O)N3CCCCC3)ccc2N2CCCC2)s1 | 1.32% (inactive) | –
Cc1cnc(NC(=O)c2cc(S(=O)(=O)N(C)C)ccc2C2CCCC2)s1 | -1.05% (inactive) | –
Cc1ccc(NC(=O)c2cc(S(=O)(=O)N(C)C)ccc2N2CCCC2)cc1 | -11.3% (inactive) | –
CCN(CC)c1ccc(S(=O)(=O)N(C)C)cc1C(=O)Nc1ncc(C)s1 | -18.6% (inactive) | –

Structure (SMILES) | activity change, negative = cytotoxicity [1] | AC50 [2]
Cc1cnc(NC(=O)c2cccc(S(=O)(=O)N(C)C)c2)s1 | -1.48% (inactive) | –
CN(C)S(=O)(=O)c1ccc(N2CCCC2)c(C(=O)N2CCOCC2)c1 | -15.1% (inactive) | –
CN(C)S(=O)(=O)c1ccc(N2CCCC2)c(C(=O)Nc2ccccc2)c1 | -5.37% (inactive) | –
CN(C)CCCN(Cc1cc2ccccc2[nH]c1=O)C(=O)NCc1ccccc1 | -7.51% (inactive) | –
Cc1cnc(NC(=O)c2cc(S(=O)(=O)N(C)C)ccc2N2CCCC2)s1 | 8.71% (inactive) and 10.8% (inactive) | –
CCN(CC)S(=O)(=O)c1ccc(N2CCCC2)c(C(=O)Nc2ncc(C)s2)c1 | -2.95% (inactive) | –
CN(C)S(=O)(=O)c1ccc(N2CCCC2)c(C(=O)Nc2ccccc2F)c1 | -17.6% (inactive) | –
COc1ccc2sc(NC(=O)c3cc(S(=O)(=O)N(C)C)ccc3N3CCCC3)nc2c1 | 1.94% (inactive) | –
COc1ccccc1NC(=O)c1cc(S(=O)(=O)N(C)C)ccc1N1CCCC1 | -2.97% (inactive) | –
CN(C)S(=O)(=O)c1ccc(N2CCCC2)c(C(=O)NC2CCCCC2)c1 | -11.1% (inactive) | –
Cc1cnc(NC(=O)c2cc(S(=O)(=O)N3CCCC3)ccc2N2CCCC2)s1 | 16.8% (inactive) | –
CN(C)CCCN(Cc1cc2ccccc2[nH]c1=O)C(=O)Nc1ccccc1 | -4.05% (inactive) | –
Cc1cnc(NC(=O)c2cc(S(=O)(=O)NCc3ccccc3)ccc2N2CCCC2)s1 | -10.3% (inactive) | –
Cc1ccccc1NC(=O)c1cc(S(=O)(=O)N(C)C)ccc1N1CCCC1 | -9.68% (inactive) | –
Cc1nnc(NC(=O)c2cc(S(=O)(=O)N(C)C)ccc2N2CCCC2)s1 | -7.43% (inactive) | –
Cc1cnc(NC(=O)c2cc(S(=O)(=O)N(CC(C)C)CC(C)C)ccc2N2CCCC2)s1 | – | > 60 µM (inactive)
Cc1cnc(NC(=O)c2cc(S(=O)(=O)N(C)C)ccc2N(C)C)s1 | -10% (inactive) | –
COc1ccc(NC(=O)c2cc(S(=O)(=O)N(C)C)ccc2N2CCCC2)cc1 | -3.02% (inactive) | –
Cc1cnc(NC(=O)c2cc(S(=O)(=O)N(C)C)ccc2N2CCC2)s1 | -5.02% (inactive) | –
Cc1cnc(NC(=O)c2cc(S(=O)(=O)N(C)C)ccc2N2CCNCC2)s1 | -1.97% (inactive) | –
